The text below walks through data of ChEMBL document CHEMBL3039007, “Structure-based identification of OATP1B1/3 inhibitors” (Mol Pharmacol, 2013).

Data set [1] addresses T1, Solute carrier organic anion transporter family member 1B1 (Homo sapiens, UniProt Q9Y6L6).
T1 sequence (Q9Y6L6 whole entry): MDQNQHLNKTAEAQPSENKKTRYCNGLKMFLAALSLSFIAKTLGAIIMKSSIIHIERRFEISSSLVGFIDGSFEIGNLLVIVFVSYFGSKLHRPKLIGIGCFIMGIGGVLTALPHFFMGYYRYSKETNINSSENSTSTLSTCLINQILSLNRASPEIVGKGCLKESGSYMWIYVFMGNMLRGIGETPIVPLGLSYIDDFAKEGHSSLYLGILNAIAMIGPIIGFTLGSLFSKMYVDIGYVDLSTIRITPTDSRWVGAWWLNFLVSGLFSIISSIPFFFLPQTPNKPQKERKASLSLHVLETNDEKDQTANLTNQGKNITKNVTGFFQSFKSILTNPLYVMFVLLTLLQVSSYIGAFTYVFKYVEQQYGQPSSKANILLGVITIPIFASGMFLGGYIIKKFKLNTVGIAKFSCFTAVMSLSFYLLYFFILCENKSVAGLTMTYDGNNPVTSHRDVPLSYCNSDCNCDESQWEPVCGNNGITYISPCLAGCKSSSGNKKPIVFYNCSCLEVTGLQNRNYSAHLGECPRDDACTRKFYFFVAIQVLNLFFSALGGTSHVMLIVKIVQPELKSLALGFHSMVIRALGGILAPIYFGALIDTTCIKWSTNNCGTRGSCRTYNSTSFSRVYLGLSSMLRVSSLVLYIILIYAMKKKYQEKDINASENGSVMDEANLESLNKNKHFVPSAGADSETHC
Particulars: chinese hamster, cho, 10 µM.

The target of data set [2] is T2, Solute carrier organic anion transporter family member 1B3 (Homo sapiens, UniProt Q9NPD5).
T2 sequence (Q9NPD5 whole entry): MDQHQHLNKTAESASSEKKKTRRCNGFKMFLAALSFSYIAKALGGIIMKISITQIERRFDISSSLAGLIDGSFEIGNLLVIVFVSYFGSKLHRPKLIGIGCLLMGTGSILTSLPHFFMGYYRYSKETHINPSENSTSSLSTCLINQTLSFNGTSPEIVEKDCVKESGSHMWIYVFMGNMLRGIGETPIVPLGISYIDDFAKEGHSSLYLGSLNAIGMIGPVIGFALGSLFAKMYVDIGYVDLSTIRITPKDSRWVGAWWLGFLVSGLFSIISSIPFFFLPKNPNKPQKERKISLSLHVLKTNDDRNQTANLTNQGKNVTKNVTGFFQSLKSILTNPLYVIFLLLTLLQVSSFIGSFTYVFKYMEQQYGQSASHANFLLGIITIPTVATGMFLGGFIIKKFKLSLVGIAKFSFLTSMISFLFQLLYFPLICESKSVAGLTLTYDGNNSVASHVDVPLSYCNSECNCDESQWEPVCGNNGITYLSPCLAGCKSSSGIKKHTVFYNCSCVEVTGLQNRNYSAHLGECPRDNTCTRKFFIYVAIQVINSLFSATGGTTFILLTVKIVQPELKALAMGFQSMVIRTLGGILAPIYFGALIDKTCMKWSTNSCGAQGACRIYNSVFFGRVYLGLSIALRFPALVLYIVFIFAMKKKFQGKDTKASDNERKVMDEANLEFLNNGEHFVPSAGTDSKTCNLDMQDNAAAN
Particulars: chinese hamster, cho, 10 µM.

Molecules are shown by their SMILES.

In general, residual activity refers to the signal under treatment as a percentage of the control signal.

With `CO[C@H]1[C@H](O)[C@H](O[C@H]2CC[C@@]3(C)[C@H](CC[C@@H]4[C@@H]3CC[C@]3(C)[C@@H](C5=CC(=O)OC5)CC[C@]43O)C2)O[C@@H](C)[C@@H]1O` [NERIIFOLIN], the residual activity came to 95.6% in data set [1] and 148.8% in data set [2].

As for `C=CC(C)(O)CC/C=C(\C)CCC=C(C)C` (stereo not given) [NEROLIDOL], the residual activity in data set [1] came to 147.7%; in data set [2], 131.1%.

`O=C(O)c1cccnc1` [NIACIN]: the residual activity in data set [1] amounted to 124.4%; in data set [2], 89.89%.

Regarding `COC(=O)C1=C(C)NC(C)=C(C(=O)OCCN(C)Cc2ccccc2)C1c1cccc([N+](=O)[O-])c1.Cl` (stereo not given) [NICARDIPINE HYDROCHLORIDE], the residual activity turned out to be 56.95% in data set [1] and 67.41% in data set [2].

In the case of `CO[C@]12C[C@@H](COC(=O)c3cncc(Br)c3)CN(C)[C@@H]1Cc1cn(C)c3cccc2c13` [NICERGOLINE], the values for the residual activity in data set [1] and in data set [2] were 91.22% and 124.1%, respectively.

For the compound `COC(=O)C1=C(C)NC(C)=C(C(=O)OC)C1c1ccccc1[N+](=O)[O-]` [NIFEDIPINE], the residual activity is on record as 75.83% in data set [1] and 170.6% in data set [2].

As to `Cc1c(NC(=O)c2cccnc2)c(=O)n(-c2ccccc2)n1C` [NIFENAZONE], the residual activity in data set [1] is listed as 96.39%; in data set [2], 120.6%.

With `O=C(O)c1cccnc1Nc1cccc(C(F)(F)F)c1` [NIFLUMIC ACID], the figures for the residual activity in data set [1] and in data set [2] were 79.63% and 83.73%, respectively.

In the case of `C[C@H](C[C@@H](O)[C@@H]1OC1(C)C)[C@@H]1CC[C@]2(C)C3=CC[C@H]4C(C)(C)C(=O)CC[C@]4(C)[C@H]3CC[C@@]12C` [NILOTICIN], the residual activity is recorded as 72.03% in data set [1] and 113.7% in data set [2].

As for `CC1(C)NC(=O)N(c2ccc([N+](=O)[O-])c(C(F)(F)F)c2)C1=O` [NILUTAMIDE], the residual activity is 116.6% in data set [1] and 97.83% in data set [2].

As for `CS(=O)(=O)Nc1ccc([N+](=O)[O-])cc1Oc1ccccc1` [NIMESULIDE], the residual activity in data set [1] was determined as 82.48%; in data set [2], 58.26%.

Regarding `Cc1ncc(CNC(=O)N(CCCl)N=O)c(N)n1` [NIMUSTINE], the residual activity in data set [1] was found to be 121.9%; in data set [2], 112%.

For the compound `O=C(O)C1CCCNC1` (stereo not given) [NIPECOTIC ACID], the residual activity in data set [1] is listed as 91.42%; in data set [2], 103.2%.

As to `N=C(NCCC[C@H](N)C(=O)O)N[N+](=O)[O-]` [NITROARGININE], the figures for the residual activity in data set [1] and in data set [2] were 113.4% and 113.8%, respectively.

As for `O=C1CN(/N=C/c2ccc([N+](=O)[O-])o2)C(=O)N1` [NITROFURANTOIN], the residual activity is listed as 97.62% in data set [1] and 100.8% in data set [2].

For `NC(=O)N/N=C/c1ccc([N+](=O)[O-])o1` [NITROFURAZONE], the residual activity in data set [1] amounted to 93.46%; in data set [2] it was 98.78%.

Regarding `NC(=O)c1cc([N+](=O)[O-])cc([N+](=O)[O-])c1` [NITROMIDE], the figures for the residual activity in data set [1] and in data set [2] were 103.7% and 106.7%, respectively.

Consider `COC(=O)Nc1nc2ccc(C(=O)c3cccs3)cc2[nH]1` [NOCODAZOLE], for which the residual activity in data set [1] was 105.9%; in data set [2] it was 95.15%.

Regarding `CN1Cc2c(N)cccc2C(c2ccccc2)C1.O=C(O)/C=C\C(=O)O` (stereo not given) [NOMIFENSINE MALEATE], the residual activity was 59.46% in data set [1] and 79.07% in data set [2].

In the case of `CCCCC[C@H](CC(=O)O)C(=O)O` [NONIC ACID], the residual activity amounted to 128.4% in data set [1] and 117% in data set [2].

`CC(N)C(O)c1ccc(O)c(O)c1.Cl` (stereo not given) [NORDEFRIN HYDROCHLORIDE]: the figures for the residual activity in data set [1] and in data set [2] were 122.3% and 103.4%, respectively.

Regarding `NC[C@H](O)c1ccc(O)c(O)c1` [NOREPINEPHRINE], the results for the residual activity in data set [1] and in data set [2] were 112.9% and 102.3%, respectively.

On to `C#C[C@]1(OC(C)=O)CC[C@H]2[C@@H]3CCC4=CC(=O)CC[C@@H]4[C@H]3CC[C@@]21C` [NORETHINDRONE ACETATE], for which the values for the residual activity in data set [1] and in data set [2] were 106.9% and 104.9%, respectively.

Take `C#C[C@]1(O)CC[C@H]2[C@@H]3CCC4=CC(=O)CC[C@@H]4[C@H]3CC[C@@]21C` [NORETHINDRONE]: the residual activity in data set [1] is given as 91.27%; in data set [2], 109.8%.

Consider `C#C[C@]1(O)CC[C@H]2[C@@H]3CCC4=C(CCC(=O)C4)[C@H]3CC[C@@]21C` [NORETHYNODREL], for which the residual activity in data set [1] is 64.52%; in data set [2], 124.5%.

`CCn1cc(C(=O)O)c(=O)c2cc(F)c(N3CCNCC3)cc21` [NORFLOXACIN]: the values for the residual activity in data set [1] and in data set [2] were 97.94% and 99.94%, respectively.

As to `C#CC1(O)CC[C@H]2[C@@H]3CCC4=CC(=O)CC[C@@H]4[C@H]3CC[C@@]21CC` (stereo not given in full) [NORGESTREL], the residual activity in data set [1] came out at 90.26%; in data set [2], 102.9%.

Turning to `c1ccc2c(c1)[nH]c1cnccc12` [NORHARMANE], the residual activity came out at 95.1% in data set [1] and 87.66% in data set [2].

Turning to `COc1ccc2c(c1OC)C(=O)O[C@@H]2[C@H]1c2c(cc3c(c2OC)OCO3)CCN1C.Cl` [NOSCAPINE HYDROCHLORIDE], the residual activity is listed as 114.6% in data set [1] and 93.17% in data set [2].

For `CO[C@@H]1[C@@H](OC(N)=O)[C@@H](O)[C@H](Oc2ccc3c([O-])c(NC(=O)c4ccc(O)c(CC=C(C)C)c4)c(=O)oc3c2C)OC1(C)C.[Na+]` [NOVOBIOCIN SODIUM], the residual activity came out at 56.21% in data set [1] and 47.15% in data set [2].

With `CC(CCc1ccccc1)NC(C)C(O)c1ccc(O)cc1.Cl` (stereo not given) [NYLIDRIN HYDROCHLORIDE], the residual activity worked out at 112.1% in data set [1] and 116.9% in data set [2].

For the compound `C=C(C)[C@H]1COc2cc3oc(=O)ccc3cc2O1` [OBLIQUIN], the values for the residual activity in data set [1] and in data set [2] were 112.3% and 103.6%, respectively.

As to `COC1=CC(=O)C(O)=C/C1=C\C=C\c1ccccc1` [OBTUSAQUINONE], the figures for the residual activity in data set [1] and in data set [2] were 60.32% and 88.38%, respectively.

As for `Cl.NCC(O)c1ccc(O)cc1` (stereo not given) [OCTOPAMINE HYDROCHLORIDE], the figures for the residual activity in data set [1] and in data set [2] were 89.25% and 96.06%, respectively.

Take `CC1COc2c(N3CCN(C)CC3)c(F)cc3c(=O)c(C(=O)O)cn1c23` (stereo not given) [OFLOXACIN]: the residual activity worked out at 65.85% in data set [1] and 89.51% in data set [2].

Turning to `O=C(O)CN(CC(=O)O)Cc1cc2c(cc1O)Oc1cc(O)c(CN(CC(=O)O)CC(=O)O)cc1C21OC(=O)c2ccccc21` [OFTASCEINE], the residual activity is 105.6% in data set [1] and 121.3% in data set [2].

`CO[C@H]1C[C@H](O[C@H]2[C@H](C)[C@@H](O[C@@H]3O[C@H](C)C[C@H](N(C)C)[C@H]3O)[C@@H](C)C[C@@]3(CO3)C(=O)[C@H](C)[C@@H](O)[C@@H](C)[C@@H](C)OC(=O)[C@@H]2C)O[C@@H](C)[C@@H]1O.O=P(O)(O)O` [OLEANDOMYCIN PHOSPHATE]: the residual activity is listed as 102.8% in data set [1] and 105.8% in data set [2].

As to `CO[C@H]1C[C@H](O[C@H]2CC[C@@]3(C)[C@H](CC[C@@H]4[C@@H]3CC[C@]3(C)[C@@H](C5=CC(=O)OC5)[C@@H](OC(C)=O)C[C@]43O)C2)O[C@@H](C)[C@@H]1O` [OLEANDRIN], the residual activity turned out to be 111.5% in data set [1] and 91.7% in data set [2].

On to `CC1(C)CC[C@]2(C(=O)O)CC[C@]3(C)C(=CC[C@@H]4[C@@]5(C)CC[C@H](O)C(C)(C)[C@@H]5CC[C@]43C)[C@@H]2C1` [OLEANOLIC_ACID], for which the figures for the residual activity in data set [1] and in data set [2] were 83.88% and 73.61%, respectively.

On to `COc1ccc(CC(=O)c2ccc(O)cc2O)cc1` [ONONETIN], for which the residual activity in data set [1] turned out to be 149.8%; in data set [2] it was 96.22%.
